Test results published in US11419902B2, “Compositions comprising bacterial strains” (4D Pharma Research Limited, priority 2018, dated 2022).

How the values were obtained:
histone deacetylase = experiment: Histone deacetylase activity in HT-29 cells; type: cell-based; conditions: 10% cell free supernatant, 48 hours
Protocol: Cell free supernatants of stationary phase bacterial cultures were isolated by centrifugation and filtering in a 0.22 uM filter. HT-29 cells were used 3 days post confluence and stepped down in 1 mL DTS 24 hours prior to commencement of the experiment. The HT-29 cells were challenged with 10% cell free supernatant diluted in DTS and was is left to incubate for 48 hours. […] proteins were then extracted using the Sigma Aldrich […] extraction kit and samples were snap frozen prior to HDAC activity measurement. HDAC activity was assessed fluorometrically using the Sigma Aldrich (UK) kit.

HDAC = HDAC inhibition on whole HT-29 cells; type: cell-based
Protocol: Pure cultures of bacteria were grown anaerobically in YCFA+ broth until they reached their stationary growth phase. Cultures were centrifuged at 5,000×g for 5 minutes and the cell-free supernatant (CFS) was filtered using a […] (Millipore, UK). 1 mL aliquots of the CFS were stored at −80° C. until use. Sodium butyrate, hexanoic and valeric acid were obtained from Sigma Aldrich (UK) and suspensions were prepared in YCFA+ broth.
To investigate which metabolites were responsible for the strain-induced HDAC inhibition, different concentrations of hexanoic acid, valeric acid and sodium butyrate were measured for their HDAC inhibition on whole HT-29 cells and on HT-29 cell lysate.

TLR-4, CD11b = experiment: Gene expression of inflammatory markers in brain tissue (qPCR); type: in vivo, BALBc mice; conditions: oral gavage 1×10^9 CFU for 6 consecutive days
Protocol: BALBc (Envigo, UK) adult male mice were group housed under a 12 h light-dark cycle; standard rodent chow and water were available ad libitum. All experiments were performed in accordance with European guidelines following approval by University College Cork Animal Ethics Experimentation Committee. Animals were 8 weeks old at the start of the experiment.
Animals were allowed to habituate to their holding room for one week after arrival into the animal unit. They receive oral gavage (200 μL dose) of live biotherapeutics at a dose of 1×10^9 CFU for 6 consecutive days between 15:00 and 17:00. On day 7, the animals are decapitated, and tissues are harvested for experimentation. […]
Total RNA was extracted using the mirVana™ miRNA Isolation kit (Ambion/Llife technologies, Paisley, UK) and DNase treated (Turbo DNA-free, Ambion/life technologies) according to the manufacturers recommendations. RNA was quantified using NanoDrop™ spectrophotometer (Thermo Fisher Scientific Inc., Wilmington, Del., USA) according to the manufacturer's instructions. RNA quality was assessed using the Agilent Bioanalyzer (Agilent, Stockport, UK) according to the manufacturer's procedure and an RNA integrity number (RIN) was calculated. […] Quantitative PCR was carried out using probes (6 carboxy fluorescein—FAM) designed by Applied Biosystems to mouse specific targeted genes, while using β-actin as an endogenous control. […]

MAP2 = MAP2 gene expression in SKMEL2 cell line (qPCR); type: cell-based; conditions: SKMEL2, relative to both negative controls (cell line only, and YCFA+)
Protocol: Cells were plated in 12-well plates at density of 2×10^5 cells/well. After 24 h cells were treated with either DMSO or Vemurafenib (662005; EMD Millipore; VEMU; SKMEL28, SKMEL31, 451Lu, HT29 (1 μM) SKMEL2 (10 μM) or Azacytidine-C (A3656; Sigma Aldrich; AzaC; 5 μg/ml) or both drugs (VEMU+Aza) together, in presence of 10% bacteria supernatants or absence of it (YCFA+). Total RNA was extracted using the RNeasy mini kit (Qiagen, Manchester, UK) according to the manufacturer's instructions, and the RNA concentration was determined by spectrophotometer at 260/280 nm (NanoDrop ND-1000; Thermo Fisher Scientific, Loughborough). For mRNA expression analysis, cDNA was prepared from 2000 ng of total RNA using the High-Capacity cDNA reverse transcription kit (Thermo Fisher, Loughborough) according to the manufacturer's instructions. The reverse transcription reactions were performed in a thermocycler (Biometra, Germany) at 25° C. for 10 min, 37° C. for 120 min, and 85° C. for 5 min Resulting cDNA was amplified in duplicates by the SYBR-Green PCR assay, and products were detected on QuantStudio 6 flex real-time PCR machine (Applied Biosystems, UK) using a standardised profile (initial denaturation of 95° C. for 10 minutes, followed by 40 cycles of 10 seconds of denaturation at 95° C. and 30 seconds of annealing/extension at 65° C.). […]

Megasphaera massiliensis MRx0029
levels of histone deacetylase activity (histone deacetylase): able reduce the levels of histone deacetylase activity | HDAC inhibition on whole HT-29 cells (HDAC): strong HDAC inhibition | expression of CD11b in the amygdala (TLR-4, CD11b): increased expression of CD11b | expression of TLR-4 in the amygdala (TLR-4, CD11b): significantly increased the expression of TLR-4 | MAP2 gene expression (MAP2): increased MAP2 gene expression
